Laboratory results: patent US20250281424A1 (New York Blood Center, Inc, priority 2020, published 2025)
Entries after “also recorded” stand apart in the source; their conditions may differ.

What was measured:
human platelets = test: PF4-KKO induced platelet activation, P-selectin, human platelets; format: cell-based; details: human platelet activation assays; 20 μM and 40 μM (FIGS. 8 and 9)
[1] = Mouse microsome stability; format: in vitro ADME; details: for half-life at 0.5 μM: Mouse microsomes, compound conc = 0.5 μM, n = 1, read-out: Mouse microsome stability Half life t1/2
Text: (§1) Certain exemplified compounds were examined for ADMET (absorption, distribution, metabolism, excretion and toxicity) profiling using conventional assays with the results shown in the Tables 3A-3C below.

[2] = Human microsome stability; format: in vitro ADME; details: for half-life at 0.5 μM: read-out: Human microsome stability Half life t1/2
Text: as §1

human PF4 = target: T1, human PF4 (Homo sapiens, UniProt P02776); test: Inhibition of PF4 tetramer formation (BS3 cross-linking, SDS-PAGE); format: biochemical; details: for IC50: read-out: IC50 of PF4 tetramer formation inhibition; for inhibition at 5 µM: 5 μM inhibitor; for inhibition at 5 µM / inhibition at 10 µM / inhibition at 1 µM / inhibition at 3 µM: read-out: % inhibition of PF4 tetramer formation at single concentration of inhibitor; for inhibition at 10 µM: 10 μM inhibitor (column A); for inhibition at 1 µM: 1 μM inhibitor; for inhibition at 3 µM: 3 μM inhibitor (column A)
T1 construct: PF4 is a 70 amino acid, lysine-rich 7.8 kDa platelet-specific protein; made in house; host or cells: Escherichia coli BL21DE3 pLysS (pT7-7) and/or Drosophila S2 cells
T1 sequence (P02776 32-101): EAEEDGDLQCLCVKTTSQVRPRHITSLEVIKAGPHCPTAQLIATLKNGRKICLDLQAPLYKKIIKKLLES
In short: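 Monomer, dimer, trimer and tetramer fractions were quantified by densitometry after reducing 12% SDS-PAGE of BS3-cross-linked (0.2 mM, 30 min, room temperature) PF4. Before cross-linking, 10 μg/ml E. coli-expressed human WT PF4 in PBS was exposed to compound for 15 min at 37° C or 60 min at room temperature; controls lacked compound.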

[3] = tested on: FcγRIIA transgenic murine platelets; test: PF4-KKO induced platelet activation, P-selectin, FcγRIIA transgenic murine platelets; format: cell-based, mouse; details: for normalized P-selectin levels: FIG. 22; for preventing P-selectin expression: FcγRIIA transgenic murine platelets, 50 μM compound, 37.5 μg/ml PF4, 50 μg/ml KKO (FIGS. 14-21)
Protocol: Whole blood was diluted with 1× Tyrode buffer (5 mM N-2-hydroxyethylpiperazine-N′-2-ethanesulfonic acid, 0.1% BSA, 134 mM NaCl, 0.3 mM NaH2PO4, 3 mM KCl, 2 mM MgCl2, 12 mM NaHCO3, 5 mM glucose) with 0.02 U/ml apyrase and 1 μM PGE1 and centrifuged at 100 g for 10 min. Platelet rich plasma (PRP) was carefully removed and centrifuged at 1000 g for 5 min. Platelet pellet was resuspended in Tyrode buffer with 0.02 U/ml apyrase at 2×10^8/ml concentration at 37° C. PF4 antagonists are diluted in Tyrode buffer, and are incubated with 10 μg/ml human PF4 purified protein at room temperature for 30 min. The PF4-drug complex is then incubated with 1×10^8/ml platelets with 1 mM CaCl2, 0.1% BSA at 37° C. for 10 min. 40 μg/ml KKO and 10 μg/ml anti-CD62P (P-selectin) antibodies are added into the reaction. One milliliter ice-cold PBS is added to each reaction after 5 min of incubation. Labelled platelets are then analyzed by a BD Accuri C6 flow cytometer. The results are represented by both the mean fluorescence intensity and by the percentage of positive platelets.
37.5 μg/ml PF4 with/without 50 μM of the exemplified compound incubated with 3×10^7/ml platelets; 50 μg/ml KKO.

[4] = Human microsomes, compound conc = 0.5 μM, n = 1

Q: With `CC(=O)C1C(=O)c2ccc(C(c3ccc4c(c3)C(=O)C(C(C)=O)C4=O)(C(F)(F)F)C(F)(F)F)cc2C1=O` (centres unmarked) [Example 11, 2-acetyl-5-[(2-acetyl-2,3-dihydro-1,3dioxo-1h-inden-5-yl)-1,1,1,3,3,3-hexafluoropropan-2-yl]-2,3-dihydro-1,3-dioxo-1h-indene] as the compound, how does the “PF4-KKO induced platelet activation using P-selectin as a marker” value (human platelets) read?
A: inhibitory

Q: What about the half-life at 0.5 μM [1] of the same compound?
A: 105 min

Q: And the half-life at 0.5 μM [2, 4]?
A: > 180 min

Q: What about the IC50 (human PF4) of the same compound?
A: 1450 nM

Q: What does the source list for `O=C(c1ccc2c(c1)C(=O)C(C(=O)NCCc1ccc3c(c1)OCO3)C2=O)c1ccc2c(c1)C(=O)C(C(=O)NCCc1ccc3c(c1)OCO3)C2=O` (centres unmarked) [Example 18, 5,5′-carbonylbis(1,3-dioxo-indan-2-carboxylic acid (2-benzo[1,3]dioxol-5-yl-ethyl)-amide)]?
A: PF4-KKO induced platelet activation using P-selectin as a marker (human platelets): inhibitory; inhibition at 5 µM (human PF4): 65%; inhibition at 10 µM (human PF4): 75%; IC50 (human PF4): 1810 nM

Q: Which half-life at 0.5 μM [1] does the source give for `O=C(c1ccc2c(c1)C(=O)C(C(=O)NCCc1ccccc1)C2=O)c1ccc2c(c1)C(=O)C(C(=O)NCCc1ccccc1)C2=O` (centres unmarked) [Example 20, 5,5′-carbonylbis(1,3-dioxo-indan-2-carboxylic acid (2-phenylethyl)-amide)] here?
A: > 145 min

Q: And the “intrinsic clearance in mouse microsome assay” value ([1]; mouse microsomes)?
A: low intrinsic clearance

Q: And the “stability in mouse microsome assay” value ([1]; mouse microsomes)?
A: excellent stability

Q: What about the half-life at 0.5 μM [2, 4] of the same compound?
A: > 145 min

Q: And the microsomal CLint at 0.5 μM ([2]; Human microsomes, compound conc = 0.5 μM, n = 1, read-out: Human microsome stability Intrinsic Clearance Clint (ml/min/mg protein))?
A: < 9.5 mL/min/mg

Q: And the “intrinsic clearance in human microsome assay” value ([2]; human microsomes)?
A: low intrinsic clearance

Q: And the “stability in human microsome assay” value ([2]; human microsomes)?
A: excellent stability

Q: What about the inhibition at 5 µM (human PF4) of the same compound?
A: 83%

Q: And the inhibition at 10 µM (human PF4)?
A: 92%

Q: What about the IC50 (human PF4) of the same compound?
A: 5750 nM

Q: With `O=C(c1ccc2c(c1)C(=O)C(C(=O)Nc1ccc3c(c1)OCCO3)C2=O)c1ccc2c(c1)C(=O)C(C(=O)Nc1ccc3c(c1)OCCO3)C2=O` (centres unmarked) [Example 29, 5,5′-carbonylbis(1,3-dioxo-indan-2-carboxylic acid (n-(2,3-dihydro-benzo[1,4]dioxin-6-yl))-amide)] as the compound, how does the “normalized P-selectin levels” value [3] read?
A: modulate the activity of normalized P-selectin; also recorded: inhibition

Q: And the “preventing P-selectin expression” value [3]?
A: efficacy

Q: And the “PF4-KKO induced platelet activation using P-selectin as a marker” value (human platelets)?
A: inhibitory

Q: What about the IC50 (human PF4) of the same compound?
A: 3020 nM

Q: Which “normalized P-selectin levels” value [3] does the source give for `COc1ccc(NC(=O)C2C(=O)c3ccc(C(=O)c4ccc5c(c4)C(=O)C(C(=O)Nc4ccc(OC)cc4)C5=O)cc3C2=O)cc1` (centres unmarked) [Example 31, 5,5′-carbonylbis(1,3-dioxo-indan-2-carboxylic acid (4-methoxyphenyl)-amide)] here?
A: modulate the activity of normalized P-selectin; also recorded: inhibition

Q: What about the “preventing P-selectin expression” value [3] of the same compound?
A: efficacy

Q: What about the “PF4-KKO induced platelet activation using P-selectin as a marker” value (human platelets) of the same compound?
A: inhibitory

Q: What about the IC50 (human PF4) of the same compound?
A: 1740 nM

Q: Which “normalized P-selectin levels” value [3] does the source give for `O=C(NCCc1ccccc1)C1C(=O)c2ccc(S(=O)(=O)c3ccc4c(c3)C(=O)C(C(=O)NCCc3ccccc3)C4=O)cc2C1=O` (centres unmarked) [Example 33, 5,5′-sulphonylbis(1,3-dioxo-indan-2-carboxylic acid (2-phenylethyl)-amide)] here?
A: inhibition

Q: What about the “preventing P-selectin expression” value [3] of the same compound?
A: efficacy

Q: What about the “PF4-KKO induced platelet activation using P-selectin as a marker” value (human platelets) of the same compound?
A: inhibitory

Q: And the inhibition at 5 µM (human PF4)?
A: 67%

Q: And the inhibition at 10 µM (human PF4)?
A: 76%

Q: What about the IC50 (human PF4) of the same compound?
A: 1600 nM

Q: For `COc1cccc(NC(=O)C2C(=O)c3ccc(S(=O)(=O)c4ccc5c(c4)C(=O)C(C(=O)Nc4cccc(OC)c4)C5=O)cc3C2=O)c1` (centres unmarked) [Example 36, 5,5′-sulphonylbis(1,3-dioxo-indan-2-carboxylic acid (3-methoxyphenyl)-amide)], which “normalized P-selectin levels” value [3] is on record?
A: modulate the activity of normalized P-selectin; also recorded: inhibition

Q: And the “preventing P-selectin expression” value [3]?
A: efficacy

Q: And the inhibition at 5 µM (human PF4)?
A: 65%

Q: What about the inhibition at 10 µM (human PF4) of the same compound?
A: 70%

Q: What about the IC50 (human PF4) of the same compound?
A: 1190 nM

Q: With `CC(=O)OC[C@H]1O[C@@H](OC(C)=O)[C@H](NC(=O)C2C(=O)c3ccc(C(=O)c4ccc5c(c4)C(=O)C(C(=O)N[C@H]4[C@H](OC(C)=O)O[C@H](COC(C)=O)[C@@H](OC(C)=O)[C@@H]4OC(C)=O)C5=O)cc3C2=O)[C@@H](OC(C)=O)[C@@H]1OC(C)=O` (stereo partly drawn) [Example 398, [(2R,3S,4R,5R,6S)-3,4,6-tris(acetyloxy)-5-[5-(1,3-dioxo-2-{[(2S,3R,4R,5S,6R)-2,4,5-tris(acetyloxy)-6-[(acetyloxy)methyl]oxan-3-yl]carbamoyl}-2,3-dihydro-1H-indene-5-carbonyl)-1,3-dioxo-2,3-dihydro-1H-indene-2-amido]oxan-2-yl]methyl acetate] as the compound, how does the inhibition at 1 µM (human PF4) read?
A: 6%

Q: What about the inhibition at 3 µM (human PF4) of the same compound?
A: 23%

Q: With `CC(=O)OC[C@H]1O[C@@H](OC(C)=O)[C@H](NC(=O)C2C(=O)c3ccc(Oc4ccc5c(c4)C(=O)C(C(=O)N[C@H]4[C@H](OC(C)=O)O[C@H](COC(C)=O)[C@@H](OC(C)=O)[C@@H]4OC(C)=O)C5=O)cc3C2=O)[C@@H](OC(C)=O)[C@@H]1OC(C)=O` (stereo partly drawn) [Example 399, [(2R,3S,4R,5R,6S)-3,4,6-tris(acetyloxy)-5-{5-[(1,3-dioxo-2-{[(2S,3R,4R,5S,6R)-2,4,5-tris(acetyloxy)-6-[(acetyloxy)methyl]oxan-3-yl]carbamoyl}-2,3-dihydro-1H-inden-5-yl)oxy]-1,3-dioxo-2,3-dihydro-1H-indene-2-amido}oxan-2-yl]methyl acetate] as the compound, how does the inhibition at 1 µM (human PF4) read?
A: 21%

Q: What about the inhibition at 3 µM (human PF4) of the same compound?
A: 28%

Q: Which inhibition at 1 µM (human PF4) does the source give for `CC(=O)OC[C@H]1O[C@@H](OC(C)=O)[C@H](NC(=O)C2C(=O)c3ccc(S(=O)(=O)c4ccc5c(c4)C(=O)C(C(=O)N[C@H]4[C@H](OC(C)=O)O[C@H](COC(C)=O)[C@@H](OC(C)=O)[C@@H]4OC(C)=O)C5=O)cc3C2=O)[C@@H](OC(C)=O)[C@@H]1OC(C)=O` (stereo partly drawn) [Example 400, [(2R,3S,4R,5R,6S)-3,4,6-tris(acetyloxy)-5-{5-[(1,3-dioxo-2-{[(2S,3R,4R,5S,6R)-2,4,5-tris(acetyloxy)-6-[(acetyloxy)methyl]oxan-3-yl]carbamoyl}-2,3-dihydro-1H-inden-5-yl)sulfonyl]-1,3-dioxo-2,3-dihydro-1H-indene-2-amido}oxan-2-yl]methyl acetate] here?
A: 17%

Q: And the inhibition at 3 µM (human PF4)?
A: 21%

Q: Which results are given for `O=C(c1ccc2c(c1)C(=O)C(C(=O)C1CC1)C2=O)c1ccc2c(c1)C(=O)C(C(=O)C1CC1)C2=O` (centres unmarked) [Example 401]?
A: inhibition at 1 µM (human PF4): 22%; inhibition at 3 µM (human PF4): 23%

Q: Which inhibition at 1 µM (human PF4) does the source give for `O=C1c2ccc(S(=O)(=O)c3ccc4c(c3)C(=O)C(C(=O)C3CC3)C4=O)cc2C(=O)C1C(=O)C1CC1` (centres unmarked) [Example 402, 2-cyclopropanecarbonyl-5-[(2-cyclopropanecarbonyl-1,3-dioxo-2,3-dihydro-1H-inden-5-yl)sulfonyl]-2,3-dihydro-1H-indene-1,3-dione] here?
A: 24%

Q: What about the inhibition at 3 µM (human PF4) of the same compound?
A: 28%

Q: With `CCOC(=O)CC(=O)C1C(=O)c2ccc(S(=O)(=O)c3ccc4c(c3)C(=O)C(C(=O)CC(=O)OCC)C4=O)cc2C1=O` (centres unmarked) [Example 403, ethyl 3-(5-{[2-(3-ethoxy-3-oxopropanoyl)-1,3-dioxo-2,3-dihydro-1H-inden-5-yl]sulfonyl}-1,3-dioxo-2,3-dihydro-1H-inden-2-yl)-3-oxopropanoate] as the compound, how does the inhibition at 1 µM (human PF4) read?
A: 22%

Q: What about the inhibition at 3 µM (human PF4) of the same compound?
A: 23%

Q: For `O=C(O)CC(=O)C1C(=O)c2ccc(S(=O)(=O)c3ccc4c(c3)C(=O)C(C(=O)CC(=O)O)C4=O)cc2C1=O` (centres unmarked) [Example 404, 3-(5-{[2-(2-carboxyacetyl)-1,3-dioxo-2,3-dihydro-1H-inden-5-yl]sulfonyl}-1,3-dioxo-2,3-dihydro-1H-inden-2-yl)-3-oxopropanoic acid], which inhibition at 1 µM (human PF4) is on record?
A: 24%

Q: And the inhibition at 3 µM (human PF4)?
A: 28%

Q: What does the source list for `Cc1ncc2n1-c1ccc(Cl)cc1C(c1ccccc1F)=NC2` [Midazolam, midazolam, reference compound]?
A: half-life at 0.5 μM [1]: 5.3 min; Human microsome stability Half life t1/2 [2, 4]: 4 min
